Data: patent US4335249A, “Herbicidal diphenyl ethers, sulfides, sulfoxides and sulfones” (Rohm and Haas Company, priority 1976, dated 1982)

Experiments:
Format in all cases: in vivo
soybean (Glycine max) [1] = test: Preemergence herbicidal activity, soybean
Method: (§1) Using the procedure described below, compounds of the invention are evaluated for control of several of the following plant species:
(§2) The following est procedure is employed. Seeds of selected crops and weeds are planted in soil in flats. For preemergence tests, the flats are treated with the test compound immediately after the planting. For postemergence tests, the seeds are allowed to germinate, and after two weeks the flats are treated with the test compound. The compound to be evaluated is dissolved in acetone, diluted with water, and sprayed over the flats using a carrier volume equivalent to 50 gallons per acre at the rate of application (pounds per acre, lb/A.) specified in the tables. About two weeks after the application of the test compound, the state of growth of the plants is observed and the phytotoxic effect of the compound is evaluated. Tables III and IV give the average percent control achieved by test compounds in terms of the percent of the plants which are killed by the compounds.

rice (Oryza sativa) [2] = test: Postemergence herbicidal activity, rice
Method: as §1, §2

[3] = tested on: crabgrass (Digitaria spp.); test: Preemergence herbicidal activity, crabgrass
Method: as §1, §2

[4] = tested on: velvetleaf (Abutilon theophrasti); test: Preemergence herbicidal activity, velvetleaf
How it was run: (§3)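 Step one: plant crop and weed seeds in soil flats. Step two: spray the acetone-dissolved, water-diluted compound (carrier 50 gal/A, dose in lb/A) immediately for preemergence, or after two weeks' growth for postemergence. Step three: about two weeks on, rate phytotoxicity as percent killed.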

foxtail (Setaria spp.) [5] = test: Preemergence herbicidal activity, foxtail
How it was run: as §3

rice (Oryza sativa) [6] = test: Preemergence herbicidal activity, rice
Method: as §1, §2

corn (Zea mays) = test: Preemergence herbicidal activity, corn
Method: as §1, §2

soybean (Glycine max) [7] = test: Postemergence herbicidal activity, soybean
Method: as §1, §2

wheat (Triticum sativum) [8] = test: Preemergence herbicidal activity, wheat
Method: as §1, §2

wild oats (Avena fatua) [9] = test: Preemergence herbicidal activity, wild oats; conditions: for % Control, Wild Oats: Preemergence
How it was run: as §3

wheat (Triticum sativum) [10] = test: Postemergence herbicidal activity, wheat
Method: as §1, §2

[11] = tested on: downybrome (Bromus tectorum); test: Preemergence herbicidal activity, downybrome
How it was run: as §3

[12] = tested on: barnyardgrass (Echinochloa crusgalli); test: Postemergence herbicidal activity, barnyardgrass
How it was run: (§4)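 Sown flats got a foliar or soil spray of compound in water-diluted acetone (carrier equivalent to 50 gallons/acre, rate in pounds per acre), given on the day of planting or, postemergence, once seedlings were two weeks old.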

wild oats (Avena fatua) [13] = test: Postemergence herbicidal activity, wild oats; conditions: for % Control, Wild Oats: Postemergence
How it was run: as §3

[14] = tested on: tomato (Lycopersicon esculentum); test: Preemergence herbicidal activity, tomato
How it was run: as §3

[15] = tested on: tomato (Lycopersicon esculentum); test: Postemergence herbicidal activity, tomato
How it was run: as §3

[16] = tested on: barnyardgrass (Echinochloa crusgalli); test: Preemergence herbicidal activity, barnyardgrass
How it was run: as §4

[17] = tested on: downybrome (Bromus tectorum); test: Postemergence herbicidal activity, downybrome
How it was run: as §3

foxtail (Setaria spp.) [18] = test: Postemergence herbicidal activity, foxtail
How it was run: as §3

[19] = tested on: velvetleaf (Abutilon theophrasti); test: Postemergence herbicidal activity, velvetleaf; conditions: Post, 2 lb/A
How it was run: as §4

[20] = tested on: yellow nutsedge (Cyperus esculentus); test: Postemergence herbicidal activity, yellow nutsedge; conditions: Post, 2 lb/A
How it was run: as §3

[21] = tested on: morningglory (Ipomoca spp.); test: Postemergence herbicidal activity, morningglory; conditions: Post, 2 lb/A
How it was run: as §3

marigold (Tagetes spp.) [22] = test: Postemergence herbicidal activity, marigold; conditions: Post, 2 lb/A
How it was run: as §3

[23] = tested on: cocklebur (Xanthium pensylvanicum); test: Preemergence herbicidal activity, cocklebur; conditions: Pre, 2 lb/A
How it was run: as §3

marigold (Tagetes spp.) [24] = test: Preemergence herbicidal activity, marigold; conditions: Pre, 2 lb/A
How it was run: as §3

[25] = tested on: cocklebur (Xanthium pensylvanicum); test: Postemergence herbicidal activity, cocklebur; conditions: Post, 2 lb/A
How it was run: as §3

[26] = tested on: yellow nutsedge (Cyperus esculentus); test: Preemergence herbicidal activity, yellow nutsedge; conditions: Pre, 2 lb/A
How it was run: as §3

[27] = tested on: morningglory (Ipomoca spp.); test: Preemergence herbicidal activity, morningglory; conditions: Pre, 2 lb/A
How it was run: as §3

[28] = Preemergence, 1/2 lb/A (Table III)
[29] = Preemergence, 1 lb/A (Table III)
[30] = Preemergence, 2 lb/A (Table III)
[31] = Postemergence, 1/2 lb/A (Table III)
[32] = Postemergence, 1 lb/A (Table III)
[33] = Postemergence, 2 lb/A (Table III)

For `CCOC(=O)C(C)Oc1ccc(Oc2ccc(C(F)(F)F)cc2Cl)cc1` (centres unmarked) [Example 1, Ethyl 2-[4-(2-chloro-4-trifluoromethylphenoxy)phenoxy] propionate], the “% Control, Soybean” value (soybean (Glycine max) [1]; 1/2 lb/A (Table III)) was 0%, the “% Control, Soybean” value (soybean (Glycine max) [1]; 1 lb/A (Table III)) was 0% and the “% Control, Soybean” value (soybean (Glycine max) [1]; 2 lb/A (Table III)) was 0%. The “% Control, Rice” value (rice (Oryza sativa) [2]; 1/2 lb/A (Table III)) was 70%, the “% Control, Rice” value (rice (Oryza sativa) [2]; 1 lb/A (Table III)) was 99% and the “% Control, Rice” value (rice (Oryza sativa) [2]; 2 lb/A (Table III)) was 90%. The “% Control, Crabgrass” value ([3]; 1/2 lb/A (Table III)) was 100%, the “% Control, Crabgrass” value ([3]; 1 lb/A (Table III)) was 100% and the “% Control, Crabgrass” value ([3]; 2 lb/A (Table III)) was 100%. The “% control, Velvetleaf” value [4, 28] was 0%, the “% control, Velvetleaf” value [4, 29] was 0% and the “% control, Velvetleaf” value [4, 30] was 0%. For the same compound, the “% control, Foxtail” value (foxtail (Setaria spp.) [5]; [28]) was 100%, the “% control, Foxtail” value (foxtail (Setaria spp.) [5]; [29]) was 100% and the “% control, Foxtail” value (foxtail (Setaria spp.) [5]; [30]) was 100%. The “% Control, Rice” value (rice (Oryza sativa) [6]; 1/2 lb/A (Table III)) was 0%, the “% Control, Rice” value (rice (Oryza sativa) [6]; 1 lb/A (Table III)) was 80% and the “% Control, Rice” value (rice (Oryza sativa) [6]; 2 lb/A (Table III)) was 100%. For the same compound, the “% Control, Corn” value (corn (Zea mays); 1/2 lb/A (Table III)) was 0%, the “% Control, Corn” value (corn (Zea mays); 1 lb/A (Table III)) was 60% and the “% Control, Corn” value (corn (Zea mays); 2 lb/A (Table III)) was 99%. For the same compound, the “% Control, Soybean” value (soybean (Glycine max) [7]; 1/2 lb/A (Table III)) was 20%, the “% Control, Soybean” value (soybean (Glycine max) [7]; 1 lb/A (Table III)) was 30% and the “% Control, Soybean” value (soybean (Glycine max) [7]; 2 lb/A (Table III)) was 40%. The “% Control, Wheat” value (wheat (Triticum sativum) [8]; 1/2 lb/A (Table III)) was 0%, the “% Control, Wheat” value (wheat (Triticum sativum) [8]; 1 lb/A (Table III)) was 0% and the “% Control, Wheat” value (wheat (Triticum sativum) [8]; 2 lb/A (Table III)) was 0%. The “% Control, Wild Oats” value (wild oats (Avena fatua) [9]; 1/2 lb/A (Table III)) was 0%, the “% Control, Wild Oats” value (wild oats (Avena fatua) [9]; 1 lb/A (Table III)) was 60% and the “% Control, Wild Oats” value (wild oats (Avena fatua) [9]; 2 lb/A (Table III)) was 99%. For the same compound, the “% Control, Wheat” value (wheat (Triticum sativum) [10]; 1/2 lb/A (Table III)) was 80%, the “% Control, Wheat” value (wheat (Triticum sativum) [10]; 1 lb/A (Table III)) was 90% and the “% Control, Wheat” value (wheat (Triticum sativum) [10]; 2 lb/A (Table III)) was 95%. For the same compound, the “% control, Downybrome” value [11, 28] was 0%, the “% control, Downybrome” value [11, 29] was 80% and the “% control, Downybrome” value [11, 30] was 90%. The “% control, Barnyardgrass” value [12, 31] was 100%, the “% control, Barnyardgrass” value [12, 32] was 100% and the “% control, Barnyardgrass” value [12, 33] was 100%. For the same compound, the “% Control, Wild Oats” value (wild oats (Avena fatua) [13]; 1/2 lb/A (Table III)) was 100%, the “% Control, Wild Oats” value (wild oats (Avena fatua) [13]; 1 lb/A (Table III)) was 100% and the “% Control, Wild Oats” value (wild oats (Avena fatua) [13]; 2 lb/A (Table III)) was 100%. The “% control, Tomato” value [14, 28] was 0%, the “% control, Tomato” value [14, 29] was 0% and the “% control, Tomato” value [14, 30] was 0%. The “% control, Tomato” value [15, 31] was 10%, the “% control, Tomato” value [15, 32] was 30% and the “% control, Tomato” value [15, 33] was 80%. The “% control, Barnyardgrass” value [16, 28] was 99%, the “% control, Barnyardgrass” value [16, 29] was 100% and the “% control, Barnyardgrass” value [16, 30] was 100%. The “% control, Downybrome” value [17, 31] was 70%, the “% control, Downybrome” value [17, 32] was 80% and the “% control, Downybrome” value [17, 33] was 90%. For the same compound, the “% control, Foxtail” value (foxtail (Setaria spp.) [18]; [31]) was 100%, the “% control, Foxtail” value (foxtail (Setaria spp.) [18]; [32]) was 100% and the “% control, Foxtail” value (foxtail (Setaria spp.) [18]; [33]) was 100%.

For `CC(Oc1ccc(Oc2ccc(C(F)(F)F)cc2Cl)cc1)C(=O)O` (centres unmarked) [Example 17], the “% control, Velvetleaf” value [19] was 0%, the “% control, Nutsedge” value [20] was 0% and the “% control, Morningglory” value [21] was 0%. For the same compound, the “% control, Marigold” value (marigold (Tagetes spp.) [22]) was 0%, the “% control, Cocklebur” value [23] was 0% and the “% control, Velvetleaf” value ([4]; Pre, 2 lb/A) was 0%. For the same compound, the “% control, Foxtail” value (foxtail (Setaria spp.) [5]; Pre, 2 lb/A) was 100%, the “% control, Marigold” value (marigold (Tagetes spp.) [24]) was 0% and the “% control, Cocklebur” value [25] was 0%. For the same compound, the “% control, Nutsedge” value [26] was 0%, the “% control, Wild oat” value (wild oats (Avena fatua) [9]; Pre, 2 lb/A) was 95% and the “% control, Downybrome” value ([11]; Pre, 2 lb/A) was 30%. The “% control, Barnyardgrass” value ([12]; Post, 2 lb/A) was 99%, the “% control, Wild oat” value (wild oats (Avena fatua) [13]; Post, 2 lb/A) was 80% and the “% control, Morningglory” value [27] was 0%. For the same compound, the “% control, Tomato” value ([14]; Pre, 2 lb/A) was 0%, the “% control, Tomato” value ([15]; Post, 2 lb/A) was 0% and the “% control, Barnyardgrass” value ([16]; Pre, 2 lb/A) was 100%. For the same compound, the “% control, Downybrome” value ([17]; Post, 2 lb/A) was 0% and the “% control, Foxtail” value (foxtail (Setaria spp.) [18]; Post, 2 lb/A) was 90%.
